Results on 24 compounds are retold here after patent publication US8207172B2 (Bayer Intellectual Property GmbH, priority 2004, dated 2012).

The test system of test [1] is A431 cells (human epidermoid carcinoma). The experiment in a line: In vitro tumor cell proliferation assay (Cell Titer-Glo luminescent cell viability), A431. It counts as cell-based. As to conditions: A-431, 72 h, 72 hours of drug exposure, ATP luminescence readout, read-out: IC50, anti-proliferative activity (inhibition of cell proliferation). In outline:
(§1)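 Proliferation inhibition was measured as ATP-dependent luciferase signal after cells in RPMI with 10% FBS received test compound for 72 h at 37° C. Final concentrations spanned […] to 64 pM in 0.1% DMSO; IC50 values were derived.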

For test [2], the system named is BT474 (human breast carcinoma). The experiment in a line: In vitro tumor cell proliferation assay (Cell Titer-Glo luminescent cell viability), BT474. It counts as cell-based. As to conditions: BT-474, 72 h, BT474 cells, 72 hours of drug exposure, ATP luminescence readout, read-out: IC50, anti-proliferative activity (inhibition of cell proliferation). In outline:
as §1

SMILES strings stand for the structures. Structures can show the parent of a compound that is named as a salt. Where only a bound is given, the exact number is not on record here.

Take `CN(C)C1CCN(CCn2ncc3c2CCc2c-3sc3ncnc(Nc4ccc5c(cnn5Cc5cccc(F)c5)c4)c23)C1` (stereo not drawn) [Example 293, 3-{2-[3-(dimethylamino)pyrrolidin-1-yl]ethyl}-N-[1-(3-fluorobenzyl)-1H-indazol-5-yl]-4,5-dihydro-3H-pyrimido[5′,4′:4,5]thieno[2,3-e]indazol-6-amine]: the IC50 in test [1] was no more than 50 µM; in test [2] it was no more than 1 µM.

Take `CCN1CCN(CCn2ncc3c2CCc2c-3sc3ncnc(Nc4ccc5c(cnn5Cc5cccc(F)c5)c4)c23)CC1` [Example 294, 3-[2-(4-ethylpiperazin-1-yl)ethyl]-N-[1-(3-fluorobenzyl)-1H-indazol-5-yl]-4,5-dihydro-3H-pyrimido[5′,4′:4,5]thieno[2,3-e]indazol-6-amine]: the values for the IC50 in test [1] and in test [2] were no more than 50 µM and no more than 1 µM, respectively.

On to `CN1CCN(CCn2ncc3c2CCc2c-3sc3ncnc(Nc4ccc5c(cnn5Cc5cccc(F)c5)c4)c23)CC1` [Example 295, 3-[2-(4-methylpiperazin-1-yl)ethyl]-N-[1-(3-fluorobenzyl)-1H-indazol-5-yl]-4,5-dihydro-3H-pyrimido[5′,4′:4,5]thieno[2,3-e]indazol-6-amine], for which the IC50 in test [1] is no more than 5 µM; in test [2], no more than 1 µM.

For the compound `Fc1cccc(Cn2ncc3cc(Nc4ncnc5sc6c(c45)CCc4c-6cnn4CCN4CCOCC4)ccc32)c1` [Example 296, N-[1-(3-fluorobenzyl)-1H-indazol-5-yl]-3-(2-morpholin-4-ylethyl)-4,5-dihydro-3H-pyrimido[5′,4′:4,5]thieno[2,3-e]indazol-6-amine], the IC50 in test [1] was no more than 5 µM; in test [2] it was no more than 1 µM.

In the case of `COCCNCCn1ncc2c1CCc1c-2sc2ncnc(Nc3ccc4c(cnn4Cc4cccc(F)c4)c3)c12` [Example 297, N-[1-(3-fluorobenzyl)-1H-indazol-5-yl]-3-{2-[(2-methoxyethyl)amino]ethyl}-4,5-dihydro-3H-pyrimido[5′,4′:4,5]thieno[2,3-e]indazol-6-amine], the results for the IC50 in test [1] and in test [2] were no more than 5 µM and no more than 1 µM, respectively.

As to `Fc1cccc(Cn2ncc3cc(Nc4ncnc5sc6c(c45)CCc4c-6cnn4CCN4CCNCC4)ccc32)c1` [Example 298, N-[1-(3-fluorobenzyl)-1H-indazol-5-yl]-3-(2-piperazin-1-ylethyl)-4,5-dihydro-3H-pyrimido[5′,4′:4,5]thieno[2,3-e]indazol-6-amine], the IC50 in test [1] was no more than 5 µM; in test [2] it was no more than 1 µM.

As for `OC1CCN(CCn2ncc3c2CCc2c-3sc3ncnc(Nc4ccc5c(cnn5Cc5cccc(F)c5)c4)c23)C1` (stereo not drawn) [Example 299, 1-[2-(6-{[1-(3-fluorobenzyl)-1H-indazol-5-yl]amino}-4,5-dihydro-3H-pyrimido[5′,4′:4,5]thieno[2,3-e]indazol-3-yl)ethyl]pyrrolidin-3-ol], the IC50 in test [1] is no more than 5 µM; in test [2], no more than 1 µM.

As for `OCCNCCn1ncc2c1CCc1c-2sc2ncnc(Nc3ccc4c(cnn4Cc4cccc(F)c4)c3)c12` [Example 300, 2-{[2-(6-{[1-(3-fluorobenzyl)-1H-indazol-5-yl]amino}-4,5-dihydro-3H-pyrimido[5′,4′:4,5]thieno[2,3-e]indazol-3-yl)ethyl]amino}ethanol], the IC50 in test [1] was no more than 5 µM; in test [2], no more than 1 µM.

On to `OCCn1cc2c(n1)CCc1c-2sc2ncnc(Nc3ccc4c(cnn4Cc4ccccc4)c3)c12` [Example 302, 2-{6-[(1-benzyl-1H-indazol-5-yl)amino]-4,5-dihydro-2H-pyrimido[5′,4′:4,5]thieno[2,3-e]indazol-2-yl}ethanol], for which the figures for the IC50 in test [1] and in test [2] were no more than 5 µM and no more than 1 µM, respectively.

As for `c1ccc(Cn2ncc3cc(Nc4ncnc5sc6c(c45)CCc4nn(CCN5CCOCC5)cc4-6)ccc32)cc1` [Example 304, N-(1-benzyl-1H-indazol-5-yl)-2-(2-morpholin-4-ylethyl)-4,5-dihydro-2H-pyrimido[5′,4′:4,5]thieno[2,3-e]indazol-6-amine], the IC50 is no more than 50 µM in test [1] and no more than 1 µM in test [2].

`CCN1CCN(CCn2cc3c(n2)CCc2c-3sc3ncnc(Nc4ccc5c(cnn5Cc5ccccc5)c4)c23)CC1` [Example 305, N-(1-benzyl-1H-indazol-5-yl)-2-[2 (4-ethylpiperazin-1-yl)ethyl]-4,5-dihydro-2H-pyrimido[5′,4′:4,5]thieno[2,3-e]indazol-6-amine]: the IC50 in test [1] was no more than 5 µM; in test [2], no more than 1 µM.

`CS(=O)(=O)CCNCCn1cc2c(n1)CCc1c-2sc2ncnc(Nc3ccc4c(cnn4Cc4ccccc4)c3)c12` [Example 307, N-(1-benzyl-1H-indazol-5-yl)-2-(2-{[2-(methylsulfonyl)ethyl]amino}ethyl)-4,5-dihydro-2H-pyrimido[5′,4′:4,5]thieno[2,3-e]indazol-6-amine]: the IC50 in test [1] was no more than 50 µM; in test [2], no more than 1 µM.

For the compound `COCCN1CCN(CCn2cc3c(n2)CCc2c-3sc3ncnc(Nc4ccc5c(cnn5Cc5ccccc5)c4)c23)CC1` [Example 308, N-(1-benzyl-1H-indazol-5-yl)-2-{2-[4-(2-methoxyethyl)piperazin-1-yl]ethyl}-4,5-dihydro-2H-pyrimido[5′,4′:4,5]thieno[2,3-e]indazol-6-amine], the IC50 in test [1] is no more than 50 µM; in test [2], no more than 1 µM.

As for `c1ccc(Cn2ncc3cc(Nc4ncnc5sc6c(c45)CCc4n[nH]cc4-6)ccc32)cc1` [Example 309, N-(1-benzyl-1H-indazol-5-yl)-4,5-dihydro-2H-pyrimido[5′,4′:4,5]thieno[2,3-e]indazol-6-amine], the results for the IC50 in test [1] and in test [2] were no more than 5 µM and no more than 1 µM, respectively.

As to `OCCn1ncc2c1CCc1c-2sc2ncnc(Nc3ccc4c(cnn4Cc4ccccc4)c3)c12` [Example 310, 2-{6-[(1-benzyl-1H-indazol-5-yl)amino]-4,5-dihydro-3H-pyrimido[5′,4′:4,5]thieno[2,3-e]indazol-3-yl}ethanol], the IC50 was no more than 5 µM in test [1] and no more than 1 µM in test [2].

As to `NS(=O)(=O)OCCn1cc2c(n1)CCc1c-2sc2ncnc(Nc3ccc(OCc4cccc(F)c4)c(Cl)c3)c12` [Example 311, 2-[6-({3-chloro-4-[(3-fluorobenzyl)oxy]phenyl}amino)-4,5-dihydro-2H-pyrimido[5′,4′:4,5]thieno[2,3-e]indazol-2-yl]ethyl sulfamate], the IC50 is no more than 50 µM in test [1] and no more than 1 µM in test [2].

Consider `COCCn1cc2c(n1)CCc1c-2sc2ncnc(Nc3ccc(OCc4cccc(F)c4)c(Cl)c3)c12` [Example 312, N-{3-chloro-4-[(3-fluorobenzyl)oxy]phenyl}-2-(2-methoxyethyl)-4,5-dihydro-2H-pyrimido[5′,4′:4,5]thieno[2,3-e]indazol-6-amine], for which the IC50 is no more than 50 µM in test [1] and no more than 5 µM in test [2].

For `CC(C)(C)OC(=O)NCC(=O)OCCn1cc2c(n1)CCc1c-2sc2ncnc(Nc3ccc(OCc4cccc(F)c4)c(Cl)c3)c12` [Example 314, 2-[6-({3-chloro-4-[(3-fluorobenzyl)oxy]phenyl}amino)-4,5-dihydro-2H-pyrimido[5′,4′:4,5]thieno[2,3-e]indazol-2-yl]ethyl N-(tert-butoxycarbonyl)glycinate], the IC50 in test [1] was no more than 5 µM; in test [2], no more than 1 µM.

As for `NCC(=O)OCCn1cc2c(n1)CCc1c-2sc2ncnc(Nc3ccc(OCc4cccc(F)c4)c(Cl)c3)c12` [Example 315, 2-[6-({3-chloro-4-[(3-fluorobenzyl)oxy]phenyl}amino)-4,5-dihydro-2H-pyrimido[5′,4′:4,5]thieno[2,3-e]indazol-2-yl]ethyl glycinate], the IC50 in test [1] is no more than 5 µM; in test [2], no more than 1 µM.

With `Cc1cc(Nc2ncnc3sc4c(c23)CCc2c-4cnn2CCN2CCN(C)CC2)ccc1O` [Example 316, 2-methyl-4-({3-[2-(4-methylpiperazin-1-yl)ethyl]-4,5-dihydro-3H-pyrimido[5′,4′:4,5]thieno[2,3-e]indazol-6-yl}amino)phenol], the IC50 in test [1] and in test [2] was no more than 50 µM throughout.

On to `CN1CCN(CCn2ncc3c2CCc2c-3sc3ncnc(Nc4ccc(OCc5cccc(Cl)c5)c(Cl)c4)c23)CC1` [Example 317, N-{3-chloro-4-[(3-chlorobenzyl)oxy]phenyl}-3-[2-(4-methylpiperazin-1-yl)ethyl]-4,5-dihydro-3H-pyrimido[5′,4′:4,5]thieno[2,3-e]indazol-6-amine trifluoroacetate], for which the IC50 was no more than 5 µM in test [1] and no more than 1 µM in test [2].

Regarding `COc1cccc(COc2ccc(Nc3ncnc4sc5c(c34)CCc3c-5cnn3CCN3CCN(C)CC3)cc2Cl)c1` [Example 318, N-{3-chloro-4-[(3-methoxybenzyl)oxy]phenyl}-3-[2-(4-methylpiperazin-1-yl)ethyl]-4,5-dihydro-3H-pyrimido[5′,4′:4,5]thieno[2,3-e]indazol-6-amine], the IC50 in test [1] and in test [2] was no more than 5 µM in each case.

For `CN1CCN(CCn2ncc3c2CCc2c-3sc3ncnc(Nc4ccc(OCc5cccc(C(F)(F)F)c5)c(Cl)c4)c23)CC1` [Example 319, N-(3-chloro-4-{[3-(trifluoromethyl)benzyl]oxy}phenyl)-3-[2-(4-methylpiperazin-1-yl)ethyl]-4,5-dihydro-3H-pyrimido[5′,4′:4,5]thieno[2,3-e]indazol-6-amine], the IC50 in test [1] and in test [2] was no more than 5 µM throughout.

For the compound `Cc1cccc(COc2ccc(Nc3ncnc4sc5c(c34)CCc3c-5cnn3CCN3CCN(C)CC3)cc2Cl)c1` [Example 320, N-{3-chloro-4-[(3-methylbenzyl)oxy]phenyl}-3-(2-(4-methylpiperazin-1-yl)ethyl]-4,5-dihydro-3H-pyrimido[5′,4′:4,5]thieno[2,3-e]indazol-6-amine trifluoroacetate], the IC50 in test [1] and in test [2] was no more than 5 µM throughout.
